Measured values taken from paper PMC10794345, “Analysis of vascular disruption in zebrafish embryos as an endpoint to predict developmental toxicity” (Archives of Toxicology, 2023).
Read-outs that look alike come from different tables or passages of the source.

Experiments:
[1] = tested on: zebrafish embryos (wild-type strain OBI/WIK); experiment: Morphological features and heart rate by automated imaging (VAST/FishInspector) at 96 hpf; assay type: in vivo, zebrafish (D. rerio); conditions: embryos exposed beginning at 3 hpf; not observed when exposure started at 24 hpf
Procedure: Automated imaging of zebrafish developmental phenotypes was conducted with the VAST BioImager (Union Biometrica, Gees, Belgium (Pardo-Martin et al. [2010]; Pulak [2016])) equipped with a large particle sampler (LP sampler, Union Biometrica). Lateral and dorsoventral images were obtained at 10 µm resolution at 96 hpf. Prior to imaging, all embryos were anesthetized by adding 20 µl tricaine solution ([…] tricaine, TRIS 26 mM, pH 7.5 ± 0.1) to each well of the microplate. Images were processed with an amended version (1.70, available via https://codebase.helmholtz.cloud/ufz/tb3-cite/biotox/FishInspector) of the FishInspector imaging software (Teixidó et al. [2019]). The FishInspector software allows to automatically annotate morphological features including body contour, eye, lower mouth tip, pericard, otoliths, notochord, swimbladder, and yolk and to calculate diverse metrics such as feature length, size, curvature indices, or angle between feature-connecting lines. In contrast to the previously published version, FishInspector 1.70 detects morphological features based on a deep learning approach using the Matlab Neural Network Toolbox and Matlab Image Processing Toolbox (Mathworks, Natick, […]). In addition, metric calculation was included into the software, and meta information such as test compound, exposure window or test concentration was associated to each image using a microplate layout file. To facilitate training of the models, two additional programs were generated in Matlab including FishTrainer 0.9 (for training of semantic segmentation models of structural features) and FishClassificator 0.9 (for training of position classes to be used in automated flipping of images) available via same repository as FishInspector software. For image training, image size was adjusted to 450 × 300 pixel to reduce computing time. This resolution was sufficient to detect the selected features (data not shown). For training of the deep learning models, approximately 3000 previously annotated images (Teixidó et al. [2022]) were used. The automated annotations were corrected by the user in the event that they were not adequately detecting visible structures. User-bias was avoided by a blinded assessment of images.
FishInspector provided a JSON file corresponding to each image file containing the coordinates of all features and the applied smoothing factor. All images and videos used for this publication can be found at the BioImage Archive S-BIAD954 (https://www.ebi.ac.uk/biostudies/bioimages/studies/S-BIAD954). For each image, a csv file was generated containing calculated metrics. The software automatically provides a summary table containing metrics r of individual embryos. […] The analyzed file includes endpoint names based on the FishInspector software. […]

[2] = tested on: early life stage zebrafish; conditions: cited from earlier work
[3] = tested on: zebrafish embryos (wild-type strain OBI/WIK); experiment: Lethality of zebrafish embryos at 96 hpf; assay type: in vivo, zebrafish (D. rerio); conditions: for Mortality (in words): embryos exposed from 24 hpf, compared to exposure from 3 hpf
Procedure: Fertilized and normally developed embryos were selected according to Kimmel et al. ([1995]) with a dissection microscope (Olympus SZx7-ILLT) at 1 hpf. Depending on experiment, exposure was started within 2–3 h post-fertilization (16–128 cell stages) or at 24 hpf. Exposure was conducted in rectangular 96-well microplates (Clear Polystyrene, flat bottom, Uniplate, Whatman, GE Healthcare) covered by a lid with a test volume of 400 µL of exposure media. For each replicate one embryo per well and 16 wells per concentration were assessed. Experiments were performed with at least two replicates on independent days and breeding.
Concentration–response curves were fitted for lethality, heart rate, morphological features as previously described (Teixidó et al. [2019], [2022]). The assessment of lethality and morphological features was based on the percentage of embryos affected. Therefore, morphological endpoints were dichotomized, i.e. feature metrics were converted to the percentage of embryos deviating from controls. An embryo was considered to deviate when it was outside 1.5-fold of the standard deviation range of the mean of the control group. The control mean was determined by pooling control embryos across all experiments (n = 160) (available at git.ufz.de). For heart rate and angiogenesis (number of ISVs) the analysis was based on normalized values, i.e. for each experiment the values of the treatment were divided by the control value. The experiments were designed to calculate effect concentrations based on modelled curve fits. Different concentrations were used in at least two independent replicates, with means of each replicate based on the exposure of 16 different embryos per concentrations. Effect concentration were only modeled when three conditions were met. (1) The Tukey trend test based on the R package "tukeytrend" (Schaarschmidt et al. [2022]) was deriving a maximum p-value of 0.05. (2) The Akaike information criterion (AIC) for the log-logistic model was lower than the AIC for a linear model with slope 0 (lower p values for the letter would indicate that there is no trend in the data). (3) We calculated effect concentrations only if at least 30% of embryos for that endpoint were affected in at least one exposure concentration of (for normalized data) a reduction or increase by 30% was observed.

Question: What does the source list for `CN(C)c1ccc(C=C2C(=O)Nc3ccccc32)cc1` [SU4312]?
Answer: Swim bladder inflation (in words) [1]: impaired swim bladder inflation; IC50 ([2]; ref Tal et al. [2014], read-out: IC50 (ISV inhibition)): 1.8 µM; LC50 ([3]; 3–96 hpf exposure, ± 95% confidence intervals): 2.11 ± 0.22 µM; Mortality (in words) [3]: no

Question: For `Cc1cc(C)c(/C=C2\C(=O)Nc3ccccc32)[nH]1` [SU5416], which “Swim bladder inflation (in words)” value [1] is on record?
Answer: The value was “impaired swim bladder inflation”.

Question: What about the “Reduction (ISV)” value ([2]; late exposure scenario, 40 µM, ref Parng et al. [2002]) of the same compound?
Answer: Its value is 40%.

Question: And the “Concentration with complete ISV inhibition” value ([2]; late exposure scenario, ref Panneerselvan and Ragunathan [2018])?
Answer: Its value is 2 µM.

Question: And the “Concentration with inhibition of ISV formation” value ([2]; ref Serbedzija et al. [1999])?
Answer: Its value is 1 µM.

Question: What about the “Mortality (in words)” value [3] of the same compound?
Answer: Its value is “reduced”.

Question: What does the source list for `CNC(=O)c1cc(Oc2ccc(NC(=O)Nc3ccc(Cl)c(C(F)(F)F)c3)cc2)ccn1` [Sorafenib]?
Answer: Swim bladder inflation (in words) [1]: impaired swim bladder inflation; IC50 ([2]; ref Lin et al. [2019], read-out: IC50 from scoring system of different ISV length): 0.53 µM; Mortality (in words) [3]: no
